This note sets out measurements from ChEMBL document CHEMBL3259648, “Synthesis and in vitro evaluation of anti-inflammatory activity of ester and amine derivatives of indoline in RAW 264.7 and peritoneal macrophages” (Bioorg Med Chem Lett, 2014).

In series [1] the test system is Peritoneal macrophage cell. Kind of series: Antiinflammatory activity in C57bl/6 mouse peritoneal macrophages assessed as reduction in LPS-induced IL-6 production at >=10 nM treated for 30 mins prior to LPS challenge measured after 24 hrs by ELISA. The series is classed as functional, cell-based. In general terms: In an ELISA, binding on a coated surface is turned into a signal by an enzyme label.

Series [2] has as its system RAW264.7. Kind of series: Cytotoxicity against mouse RAW264.7 cells assessed as cell viability at 10 pM to 10 uM by MTT assay. Format: cell-based.
The next series addresses Cholinesterase (Equus caballus, UniProt P81908). Briefly: Inhibition of BuChE in equine serum using butylthiocholine iodide as substrate by Ellman's method. On the technique in general: Ellman's reagent forms a yellow product with free thiols.
The nature of series [3]: Cytotoxicity against C57bl/6 mouse peritoneal macrophages assessed as cell viability at 10 pM to 10 uM by MTT assay. The series is classed as cell-based. To be noted: peritoneal macrophage cell.
For series [4], the system named is Peritoneal macrophage cell. Kind of series: Antiinflammatory activity in C57bl/6 mouse peritoneal macrophages assessed as reduction in LPS-induced TNF-alpha production at >=1 uM treated for 30 mins prior to LPS challenge measured after 6 hrs by ELISA. The series is classed as functional, cell-based.
Series [5] concerns Peritoneal macrophage cell. Briefly: Antiinflammatory activity in C57bl/6 mouse peritoneal macrophages assessed as reduction in LPS-induced TNF-alpha production at >=10 pM treated for 30 mins prior to LPS challenge measured after 6 hrs by ELISA. The series is classed as functional, cell-based.
The subject of series [6] is RAW264.7. Briefly: Antiinflammatory activity in mouse RAW264.7 cells assessed as reduction in LPS-induced NaNO2 release at 1 nM treated for 30 mins prior to LPS challenge measured after 24 hrs by griess reaction assay relative to budesonide. Format: functional. In general terms: Griess reagent forms a coloured azo dye with nitrite.
The test system of series [7] is RAW264.7. Briefly: Antiinflammatory activity in mouse RAW264.7 cells assessed as reduction in LPS-induced NaNO2 release at 1 nM treated for 30 mins prior to LPS challenge measured after 24 hrs by griess reaction assay relative to melatonin. The series is classed as functional.
Series [8] deals with RAW264.7. Kind of series: Antiinflammatory activity in mouse RAW264.7 cells assessed as reduction in LPS-induced NaNO2 release at >=1 nM treated for 30 mins prior to LPS challenge measured after 24 hrs by griess reaction assay. Format: functional, cell-based.
The next series deals with T1, Acetylcholinesterase (Bos taurus, UniProt P23795).
T1 sequence (P23795 whole entry): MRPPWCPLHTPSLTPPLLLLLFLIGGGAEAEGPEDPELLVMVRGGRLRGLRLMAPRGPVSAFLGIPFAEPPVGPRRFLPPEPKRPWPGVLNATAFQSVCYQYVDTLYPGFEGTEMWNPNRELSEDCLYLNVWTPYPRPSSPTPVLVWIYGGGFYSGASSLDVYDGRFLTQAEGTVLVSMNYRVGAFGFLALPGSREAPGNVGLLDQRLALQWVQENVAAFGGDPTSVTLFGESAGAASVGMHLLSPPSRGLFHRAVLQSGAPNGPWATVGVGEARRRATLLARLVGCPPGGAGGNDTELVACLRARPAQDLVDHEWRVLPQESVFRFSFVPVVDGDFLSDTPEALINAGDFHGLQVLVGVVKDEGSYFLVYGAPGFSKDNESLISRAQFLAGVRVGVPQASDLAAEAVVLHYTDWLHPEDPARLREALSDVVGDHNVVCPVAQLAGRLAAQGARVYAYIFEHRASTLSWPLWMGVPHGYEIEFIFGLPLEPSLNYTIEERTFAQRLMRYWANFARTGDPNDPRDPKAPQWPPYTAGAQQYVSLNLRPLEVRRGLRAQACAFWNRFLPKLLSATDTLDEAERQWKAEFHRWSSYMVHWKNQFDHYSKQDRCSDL
Kind of series: Inhibition of AChE in bovine erythrocytes using acetylthiocholine iodide as substrate by Ellman's method.

The subject of series [9] is Peritoneal macrophage cell. Briefly: Antiinflammatory activity in C57bl/6 mouse peritoneal macrophages assessed as reduction in LPS-induced TNF-alpha production at >=10 nM treated for 30 mins prior to LPS challenge measured after 6 hrs by ELISA. Format: functional, cell-based.
Series [10] has as its system RAW264.7. Kind of series: Antiinflammatory activity in mouse RAW264.7 cells assessed as reduction in LPS-induced NaNO2 release at >=10 pM treated for 30 mins prior to LPS challenge measured after 24 hrs by griess reaction assay. Format: functional, cell-based.
Series [11] deals with RAW264.7. Briefly: Antiinflammatory activity in mouse RAW264.7 cells assessed as reduction in LPS-induced NaNO2 release at 10 pM treated for 30 mins prior to LPS challenge measured after 24 hrs by griess reaction assay relative to budesonide. Format: functional.
Series [12] relates to RAW264.7. Kind of series: Antiinflammatory activity in mouse RAW264.7 cells assessed as reduction in LPS-induced NaNO2 release at 10 pM treated for 30 mins prior to LPS challenge measured after 24 hrs by griess reaction assay relative to melatonin. Format: functional.
Series [13] has as its system Peritoneal macrophage cell. Briefly: Antiinflammatory activity in C57bl/6 mouse peritoneal macrophages assessed as reduction in LPS-induced TNF-alpha production at >=1 pM treated for 30 mins prior to LPS challenge measured after 6 hrs by ELISA. Format: functional, cell-based.
For series [14], the system named is Peritoneal macrophage cell. Briefly: Antiinflammatory activity in C57bl/6 mouse peritoneal macrophages assessed as reduction in LPS-induced IL-6 production at >=10 pM treated for 30 mins prior to LPS challenge measured after 24 hrs by ELISA. The series is classed as functional, cell-based.
Series [15] concerns Peritoneal macrophage cell. Kind of series: Antiinflammatory activity in C57bl/6 mouse peritoneal macrophages assessed as reduction in LPS-induced IL-6 production at >=1 nM treated for 30 mins prior to LPS challenge measured after 24 hrs by ELISA. Format: functional, cell-based.
The target in series [16] is MAP kinase p38 (Mus musculus) (UniProt P47811+O08911+Q9WUI1+Q9Z1B7). Briefly: Inhibition of p38 phosphorylation in LPS-activated C57bl/6 mouse peritoneal macrophages at 0.1 nM treated for 30 mins prior to LPS challenge by immunoblot analysis.
For series [17], the species on record is Mus musculus. Kind of series: Inhibition of ERK phosphorylation in LPS-activated C57bl/6 mouse peritoneal macrophages at 0.1 nM treated for 30 mins prior to LPS challenge by immunoblot analysis.
Series [18] is filed under the species Mus musculus. Briefly: Inhibition of JNK phosphorylation in LPS-activated C57bl/6 mouse peritoneal macrophages at 0.1 nM treated for 30 mins prior to LPS challenge by immunoblot analysis.
The target of series [19] is T2, Inhibitor of nuclear factor kappa-B kinase subunit alpha (Mus musculus) (UniProt Q60680).
T2 sequence (whole entry): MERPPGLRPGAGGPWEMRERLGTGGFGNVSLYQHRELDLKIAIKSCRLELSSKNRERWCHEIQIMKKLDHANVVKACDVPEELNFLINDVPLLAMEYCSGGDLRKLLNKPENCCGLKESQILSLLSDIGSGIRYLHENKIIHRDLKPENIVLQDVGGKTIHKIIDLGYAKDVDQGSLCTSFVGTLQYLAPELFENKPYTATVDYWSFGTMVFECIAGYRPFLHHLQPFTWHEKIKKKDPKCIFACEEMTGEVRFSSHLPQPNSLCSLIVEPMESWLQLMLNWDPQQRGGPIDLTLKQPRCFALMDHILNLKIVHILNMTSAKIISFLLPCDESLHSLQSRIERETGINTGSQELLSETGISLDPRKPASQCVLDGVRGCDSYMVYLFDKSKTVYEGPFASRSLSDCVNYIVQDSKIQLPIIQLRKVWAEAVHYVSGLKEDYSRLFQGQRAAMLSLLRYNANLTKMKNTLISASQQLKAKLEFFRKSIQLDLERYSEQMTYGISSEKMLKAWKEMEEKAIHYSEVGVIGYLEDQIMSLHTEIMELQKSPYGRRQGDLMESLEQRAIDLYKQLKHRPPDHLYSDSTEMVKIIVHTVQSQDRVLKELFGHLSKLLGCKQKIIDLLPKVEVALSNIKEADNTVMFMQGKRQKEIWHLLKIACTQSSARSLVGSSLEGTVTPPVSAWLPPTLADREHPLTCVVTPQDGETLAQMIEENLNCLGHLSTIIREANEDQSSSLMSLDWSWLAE
Briefly: Inhibition of IkappaB alpha degradation in LPS-activated C57bl/6 mouse peritoneal macrophages at 0.1 nM treated for 30 mins prior to LPS challenge by immunoblot analysis.

Molecules are shown by their SMILES. Active and inactive are the calls of the source. The rule behind the calls is not given here.

Chain of Cholinesterase (P81908 whole entry): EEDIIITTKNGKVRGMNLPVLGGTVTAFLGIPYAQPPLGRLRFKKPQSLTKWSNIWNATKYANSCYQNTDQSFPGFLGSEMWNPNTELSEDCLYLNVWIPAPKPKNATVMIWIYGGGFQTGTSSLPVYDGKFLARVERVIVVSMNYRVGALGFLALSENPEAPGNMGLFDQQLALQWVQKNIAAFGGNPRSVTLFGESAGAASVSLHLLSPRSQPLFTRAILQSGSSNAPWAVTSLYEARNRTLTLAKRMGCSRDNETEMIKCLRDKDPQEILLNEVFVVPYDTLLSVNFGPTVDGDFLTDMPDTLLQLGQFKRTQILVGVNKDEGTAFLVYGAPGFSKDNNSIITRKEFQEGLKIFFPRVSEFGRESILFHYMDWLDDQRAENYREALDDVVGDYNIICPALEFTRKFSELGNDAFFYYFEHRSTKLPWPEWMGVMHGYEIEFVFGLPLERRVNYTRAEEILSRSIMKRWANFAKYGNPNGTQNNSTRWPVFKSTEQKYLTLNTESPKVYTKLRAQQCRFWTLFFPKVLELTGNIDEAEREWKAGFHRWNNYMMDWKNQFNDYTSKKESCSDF

Consider `CCN(C)C(=O)Oc1ccc2c(c1)N(CCC(=O)OC)CC2.Cl`, for which the inhibition result in series [1] and in series [4] was “Active” throughout. Further, the Activity entry (with RAW264.7 [2]; in series [3]) was “Non-toxic” throughout. Also, the IC50 (as a rule, the point on the concentration scale where inhibition reaches its midpoint) against Cholinesterase is 6780 nM.

As for `CCN(C)C(=O)Oc1ccc2c(c1)N(CCCN(C)C)CC2.Cl`, the inhibition result (in series [5]; in series [1]; in the series with RAW264.7 [8]) was “Active” in each case. Besides, the “fold change (FC)” value amounted to 10 with RAW264.7 [6] and 100 with RAW264.7 [7]. The Activity result (in the series on RAW264.7 [2]; in series [3]) was “Non-toxic” throughout. For the same compound, the IC50 was found to be 4270 nM against Cholinesterase and 48000 nM against Acetylcholinesterase.

With `CCN(C)C(=O)Oc1ccc2c(c1)NCC2CCN(C)C.Cl` (stereo not given), the inhibition result (in series [5]; in series [1]; in the series with RAW264.7 [8]) was “Active” throughout. The “fold change (FC)” value in the series on RAW264.7 [6] is on record as 10; in the series with RAW264.7 [7], 100. Moreover, the Activity result (with RAW264.7 [2]; in series [3]) was “Non-toxic” in each case. Moreover, the IC50 on Cholinesterase amounted to 2200 nM; against Acetylcholinesterase, 21300 nM.

With `CCN(C)C(=O)Oc1cccc2c1CCN2CCC(=O)OC.Cl`, the inhibition result (in series [9]; with RAW264.7 [10]; in [1]) was “Active” each time. The “fold change (FC)” value in the series on RAW264.7 [11] stood at 10; with RAW264.7 [12] it was 100. Moreover, the Activity entry (in the series on RAW264.7 [2]; in series [3]) was “Non-toxic” in each case. This compound also gave an IC50 against Cholinesterase of 700 nM.

For the compound `CCN(C)C(=O)Oc1cccc2c1C(CCN)CN2.Cl.Cl` (stereo not given), the inhibition entry (in [13]; in series [14]; with RAW264.7 [10]) was “Active” each time. Besides, the entries for the “fold change (FC)” value in the series on RAW264.7 [11] and with RAW264.7 [12] were 10 and 100, respectively. Moreover, the Activity entry (in the series with RAW264.7 [2]; in series [3]) was “Non-toxic” each time. Moreover, the IC50 at Cholinesterase is 200 nM.

With `CCN(C)C(=O)Oc1ccc2c(c1)NCC2CCC(=O)OC.Cl` (stereo not given), the inhibition result (in series [13]; with RAW264.7 [10]; in series [15]) was “Active” in each case. Also, the “fold change (FC)” value came to 10 with RAW264.7 [11] and 100 with RAW264.7 [12]. The Activity result (in the series with RAW264.7 [2]; in series [3]) was “Non-toxic” in each case. At Cholinesterase, this compound had an IC50 of 3900 nM.

For the compound `CCN(C)C(=O)Oc1cccc2c1C(CCCN)CN2.Cl` (stereo not given), the inhibition result (in series [13]; in series [14]; with RAW264.7 [8]) was “Active” throughout. Also, the “fold change (FC)” value worked out at 10 in the series on RAW264.7 [6] and 100 in the series on RAW264.7 [7]. The Activity result (in the series on RAW264.7 [2]; in [3]) was “Non-toxic” in each case. For the same compound, the IC50 on Cholinesterase amounted to 1200 nM; against Acetylcholinesterase it was 1800 nM.

As to `CCN(C)C(=O)Oc1ccc2c(c1)NCC2CCCN.Cl` (stereo not given), the inhibition result (in [13]; in [14]; in the series on RAW264.7 [8]) was “Active” in each case. Moreover, the entries for the “fold change (FC)” value in the series with RAW264.7 [6] and in the series on RAW264.7 [7] were 10 and 100, respectively. The Activity result (with RAW264.7 [2]; in series [3]) was “Non-toxic” in each case. For the same compound, the IC50 is 4700 nM at Cholinesterase and 36000 nM against Acetylcholinesterase.

Regarding `CCN(C)C(=O)Oc1cccc2c1CCN2CCCN(C)C.Cl`, the inhibition entry (in series [5]; in [1]; in the series on RAW264.7 [8]) was “Active” each time. Besides, the “fold change (FC)” value with RAW264.7 [6] turned out to be 10; with RAW264.7 [7] it was 100. Further, the Activity result (with RAW264.7 [2]; in series [3]) was “Non-toxic” throughout. Moreover, the IC50 was determined as 900 nM against Cholinesterase and 3700 nM against Acetylcholinesterase.

For `CCN(C)C(=O)Oc1cccc2c1C(CCC(=O)OC)CN2.Cl` (stereo not given), the inhibition entry (in series [13]; in [14]; in the series with RAW264.7 [10]; in series [16]; in [19]) was “Active” throughout. The entries for the “fold change (FC)” value with RAW264.7 [11] and in the series with RAW264.7 [12] were 10 and 100, respectively. The Activity result (in the series on RAW264.7 [2]; in [3]) was “Non-toxic” each time. The IC50 against Cholinesterase turned out to be 300 nM. Further, the inhibition entry in the series listed under Mus musculus [17] and in the series listed under Mus musculus [18] was “inactive” in each case.

Consider `CCN(C)C(=O)Oc1cccc2c1C(CCN(C)C)CN2.Cl` (stereo not given), for which the inhibition entry (in the series on RAW264.7 [10]; in [5]; in series [1]) was “Active” throughout. Besides, the results for the “fold change (FC)” value with RAW264.7 [11] and in the series on RAW264.7 [12] were 10 and 100, respectively. For the same compound, the Activity result (with RAW264.7 [2]; in [3]) was “Non-toxic” in each case. In addition, the half-inhibitory concentration (IC50) at Cholinesterase was found to be 310 nM; at Acetylcholinesterase, 1300 nM.
